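A five-concentration, 48-hour dose response in 96-well plates underlies each endpoint, interpolated linearly between surrounding concentrations. GI50: concentration for 50% inhibition of growth.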 Calls of active or inactive are those of the source. No stated cut-off is given here; in the data, active = GI50 up to about 1.1 µM and inactive = higher.
How the values were obtained:
Assay in all cases: NCI tumour cell line growth inhibition, 48 h
OVCAR-4 = system: OVCAR-4
RXF 393 = system: RXF 393
DU-145 = system: DU-145
UACC-257 = system: UACC-257
COLO 205 = system: COLO 205
PC-3 = system: PC-3
MCF7 = system: MCF7
A498 = system: A498
UO-31 = system: UO-31
SNB-19 = system: SNB-19
SW-620 = system: SW-620
HT-29 = system: HT-29
Hs-578T = system: Hs-578T
A549 = system: A549
OVCAR-3 = system: OVCAR-3
IGROV-1 = system: IGROV-1
SF-295 = system: SF-295
SK-OV-3 = system: SK-OV-3
HL-60 = system: HL-60
NCI-H460 = system: NCI-H460

Measured: GI50

CCCCCCCCCCCCCCCCCCNc1ccn(C2OC(COP(=O)(O)OCCCCCCCCCCCCCCCC)C(O)C2O)c(=O)n1 (stereo not given)
inactive: OVCAR-4 > 100 µM | RXF 393 > 100 µM | DU-145 > 100 µM | UACC-257 > 100 µM | COLO 205 > 100 µM | PC-3 > 100 µM | MCF7 > 100 µM | A498 > 100 µM | UO-31 > 100 µM | SNB-19 > 100 µM | SW-620 > 100 µM | HT-29 > 100 µM | Hs-578T 83.8 µM | A549 > 100 µM | OVCAR-3 > 100 µM | IGROV-1 > 100 µM | SF-295 > 100 µM | SK-OV-3 > 100 µM | HL-60 58.3 µM

CC(=O)/C=C1/C(=O)C(CC(C)C)=C1CC(C)C
inactive: OVCAR-4 > 100 µM | RXF 393 > 100 µM | DU-145 > 100 µM | UACC-257 > 100 µM | COLO 205 > 100 µM | PC-3 > 100 µM | MCF7 > 100 µM | A498 > 100 µM | UO-31 > 100 µM | SNB-19 > 100 µM | SW-620 > 100 µM | HT-29 > 100 µM | Hs-578T > 100 µM | A549 > 100 µM | IGROV-1 > 100 µM | SF-295 > 100 µM | SK-OV-3 > 100 µM | HL-60 > 100 µM

O=C(Nc1nc(C23CC4CC(CC(C4)C2)C3)cs1)c1cc2ccccc2oc1=O
inactive: OVCAR-4 > 100 µM | RXF 393 > 100 µM | DU-145 > 100 µM | UACC-257 > 100 µM | COLO 205 > 100 µM | PC-3 > 100 µM | MCF7 > 100 µM | A498 > 100 µM | UO-31 > 100 µM | SNB-19 > 100 µM | SW-620 > 100 µM | HT-29 > 100 µM | NCI-H460 > 100 µM | Hs-578T > 100 µM | A549 38.2 µM | OVCAR-3 > 100 µM | IGROV-1 > 100 µM | SF-295 > 100 µM | HL-60 > 100 µM

CCN(CC)CCC(=O)c1ccc(Oc2ccc(Cl)cc2)cc1
inactive: OVCAR-4 15.8 µM | RXF 393 22.3 µM | DU-145 21.6 µM | UACC-257 14 µM | COLO 205 24.3 µM | PC-3 15.1 µM | MCF7 17.7 µM | A498 16.1 µM | UO-31 18 µM | SNB-19 30 µM | SW-620 22 µM | HT-29 21.2 µM | NCI-H460 14.7 µM | Hs-578T 23.6 µM | A549 > 100 µM | OVCAR-3 15.3 µM | IGROV-1 20.4 µM | SF-295 18.4 µM | HL-60 21.1 µM

— ChEMBL document CHEMBL1201862, “PubChem BioAssay data set” (2004)
